Results on 3 molecules are retold here after patent publication US20050095281A1, “Liposomal formulations and methods of use” (OPTIME Therapeutics, Inc., priority 2003, published 2005).

The subject of one data set is Lactobacillus. Conditions: previously shown; cited from earlier work.
The test system of data set [1] is human cervical epithelium. Briefly: Histological evaluation of excised human cervical tissue ex vivo (Franz diffusion cell). The conditions noted are these: 2% polysorbate 80 (data not shown).

For the molecule `COC(=O)c1ccc(O)cc1` [methylparaben], in the data set with Lactobacillus, the “toxicity of preservatives to Lactobacillus” value is “nontoxic”. For the molecule `CCCOC(=O)c1ccc(O)cc1` [propylparaben], the “toxicity of preservatives to Lactobacillus” value in the data set with Lactobacillus is “nontoxic”. Consider polysorbate 80, for which, in data set [1], the “histological changes in human cervical epithelium” value is listed as “Severe shedding of the epithelial layers”.
